Patent publication US10385065B2, “Antibacterial compounds” (priority 2014, dated 2019)
≈ marks a conversion by molar mass, not a printed value. Where two headings read alike, the source gives them in different places.

Key:
Assay type in all cases: cell-based
[1] = test system: Staphylococcus aureus ATCC 29213; assay: MIC, broth microdilution, S. aureus ATCC 29213
[2] = test system: Escherichia coli ATCC 25922; assay: MIC, broth microdilution, E. coli ATCC 25922; conditions: ATCC25922, Table 1, wild type strain
[3] = test system: S. aureus NRS482 MRSA FQ resistant; assay: MIC, S. aureus NRS482; conditions: Staphylococcus aureus; Table 2
[4] = test system: S. aureus (MRSA) ATCC 43300; assay: MIC, S. aureus ATCC 43300; conditions: Staphylococcus aureus; Table 2; read-out: MIC S. aureus (MRSA) ATCC 43300 Heterogeneous MRSA strain
[5] = test system: S. aureus SACPX1-SP25 MSSA - FQ resistant; assay: microbe, parasite or virus in culture; conditions: Staphylococcus aureus, ATCC 29213 / MSSA, read-out: MIC S. aureus SACPX1-SP25 MSSA - FQ resistant (isogenic mutant of ATCC 29213)
[6] = test system: S. aureus VRS1 MRSA VAN resistant; assay: MIC, S. aureus VRS1; conditions: Staphylococcus aureus, Table 2
[7] = test system: Enterococcus faecium ATCC 19434; assay: MIC, E. faecium ATCC 19434; conditions: ATCC19434, Table 2
[8] = test system: Haemophilus influenzae ATCC 49247; assay: MIC, H. influenzae ATCC 49247; conditions: ATCC49247, Table 4
[9] = test system: Moraxella catarrhalis ATCC 25240; assay: MIC, M. catarrhalis ATCC 25240; conditions: ATCC25240, Table 4
[10] = test system: Legionella pneumophila ATCC 33152; assay: microbe, parasite or virus in culture; conditions: ATCC33152, 48 h, read-out: MIC Legionella pneumophila ATCC 33152
[11] = test system: Neisseria gonorrhoeae ATCC 49226; assay: MIC, N. gonorrhoeae ATCC 49226; conditions: ATCC49226, Table 4, 24 h incubation
[12] = test system: human hepatic cell line (HepG2 ATCC HB-8065); assay: Human cell viability assay (CellTiter-Glo), HepG2; conditions: HepG2, 24 h incubation, tested over 1-128 μg/mL, read-out: IC50 values against HepG2
Procedure, shortened: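 HepG2 seeded at 20,000 cells/well, then after 24 h given two-fold serial dilutions (1-128 μg/mL, 1% DMSO) in DMEM with 0.001% FBS and 0.3% albumin. After 24 h at 37 °C, ATP luminescence (CellTiter-Glo) read; IC50 is the concentration halving viability.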

S. aureus NRS1 MRSA = assay: MIC, S. aureus NRS1; conditions: Staphylococcus aureus; Table 2; read-out: MIC S. aureus NRS1 MRSA AMG & TET resistant
[13] = test system: S. aureus NRS127 MRSA LZD resistant; assay: MIC, S. aureus NRS127; conditions: Staphylococcus aureus; Table 2
[14] = test system: S. epidermidis NRS101 MRSE; assay: MIC, S. epidermidis NRS101; conditions: Staphylococcus epidermidis; Table 2; read-out: MIC S. epidermidis NRS101 MRSE AMG, ERY resistant
[15] = test system: Neisseria meningitidis ATCC 13090; assay: MIC, N. meningitidis ATCC 13090; conditions: ATCC13090, Table 4, 24 h incubation
[16] = ATCC29213, Table 1, wild type strain, read-out: MIC S. aureus ATCC 29213
[17] = ATCC 29213 / MSSA, Table 2, read-out: MIC S. aureus (MSSA) ATCC 29213 CLSI control strain

SMILES | MIC [1, 16] | MIC [1, 17] | MIC [2] | MIC [3] | MIC [4] | MIC [5] | MIC [6] | MIC [7] | MIC [8] | MIC [9] | MIC [10] | MIC [11] | IC50 [12] | MIC (S. aureus NRS1 MRSA) | MIC [13] | MIC [14] | MIC [15]
C[C@H]1COc2c(-c3cc(F)c(N)cc3F)ccc3c4ocnc4c(=O)n1c23 [Compound 93, (2S)-6-(4-amino-2,5-difluorophenyl)-2-methyl-4,11-dioxa-1,13-diazatetracyclo[7.6.1.0^5,^16.0^10,^14]hexadeca-5(16),6,8,10(14),12-pentaen-15-one] | 1 to 10 µg/mL (≈ 2.71 to 27.1 µM) | 1 to 10 µg/mL (≈ 2.71 to 27.1 µM) | 1 to 10 µg/mL (≈ 2.71 to 27.1 µM) | 1 to 10 µg/mL (≈ 2.71 to 27.1 µM) | < 1 µg/mL | 1 to 10 µg/mL (≈ 2.71 to 27.1 µM) | 1 to 10 µg/mL (≈ 2.71 to 27.1 µM) | 10 to 100 µg/mL (≈ 27.1 to 271 µM) | < 1 µg/mL | 1 to 10 µg/mL (≈ 2.71 to 27.1 µM) | < 1 µg/mL | < 1 µg/mL | > 100 µg/mL | – | – | – | –
Cc1nc2c(=O)n3c4c(c(N5CC[C@H](CN)C5)c(F)cc4c2o1)OC[C@@H]3C [Compound 89, (2S)-6-[(3R)-3-(aminomethyl)pyrrolidin-1-yl]-7-fluoro-2,12-dimethyl-4,11-dioxa-1,13-diazatetracyclo[7.6.1.0^5,^16.0^10,^14]hexadeca-5(16),6,8,10(14),12-pentaen-15-one] | 1 to 10 µg/mL (≈ 2.69 to 26.9 µM) | 1 to 10 µg/mL (≈ 2.69 to 26.9 µM) | 1 to 10 µg/mL (≈ 2.69 to 26.9 µM) | 1 to 10 µg/mL (≈ 2.69 to 26.9 µM) | 1 to 10 µg/mL (≈ 2.69 to 26.9 µM) | 1 to 10 µg/mL (≈ 2.69 to 26.9 µM) | 1 to 10 µg/mL (≈ 2.69 to 26.9 µM) | 10 to 100 µg/mL (≈ 26.9 to 269 µM) | 1 to 10 µg/mL (≈ 2.69 to 26.9 µM) | – | 1 to 10 µg/mL (≈ 2.69 to 26.9 µM) | – | 10 to 100 µg/mL (≈ 26.9 to 269 µM) | 1 to 10 µg/mL (≈ 2.69 to 26.9 µM) | 10 to 100 µg/mL (≈ 26.9 to 269 µM) | – | –
Cc1c(-c2cc(F)c(N)cc2F)ccc2c3oc(CN)nc3c(=O)n(C3CC3)c12 [Compound 100, 7-(4-amino-2,5-difluoro-phenyl)-2-(aminomethyl)-5-cyclopropyl-6-methyl-oxazolo[4,5-c]quinolin-4-one] | < 1 µg/mL | < 1 µg/mL | < 1 µg/mL | < 1 µg/mL | < 1 µg/mL | < 1 µg/mL | 1 to 10 µg/mL (≈ 2.52 to 25.2 µM) | 1 to 10 µg/mL (≈ 2.52 to 25.2 µM) | < 1 µg/mL | < 1 µg/mL | < 1 µg/mL | < 1 µg/mL | > 100 µg/mL | < 1 µg/mL | 1 to 10 µg/mL (≈ 2.52 to 25.2 µM) | < 1 µg/mL | < 1 µg/mL
Cc1c(-c2cc(F)c(N)cc2F)ccc2c3scnc3c(=O)n(C3CC3)c12 [Compound 108, 7-(4-amino-2,5-difluorophenyl)-5-cyclopropyl-6-methyl-thiazolo[4,5-c]quinolin-4-one] | < 1 µg/mL | < 1 µg/mL | 1 to 10 µg/mL (≈ 2.61 to 26.1 µM) | < 1 µg/mL | < 1 µg/mL | < 1 µg/mL | < 1 µg/mL | 10 to 100 µg/mL (≈ 26.1 to 261 µM) | < 1 µg/mL | – | – | – | 10 to 100 µg/mL (≈ 26.1 to 261 µM) | < 1 µg/mL | < 1 µg/mL | < 1 µg/mL | –
Cc1c(-c2cc(F)c(CO)cc2F)ccc2c3ocnc3c(=O)n(C3CC3)c12 [Compound 25, 5-cyclopropyl-7-[2,5-difluoro-4-(hydroxymethyl)phenyl]-6-methyl-oxazolo[4,5-c]quinolin-4-one] | < 1 µg/mL | < 1 µg/mL | 1 to 10 µg/mL (≈ 2.62 to 26.2 µM) | < 1 µg/mL | < 1 µg/mL | – | < 1 µg/mL | 10 to 100 µg/mL (≈ 26.2 to 262 µM) | < 1 µg/mL | – | – | – | 10 to 100 µg/mL (≈ 26.2 to 262 µM) | < 1 µg/mL | < 1 µg/mL | < 1 µg/mL | –
Cc1c(-c2cnc3[nH]nc(N)c3c2)ccc2c3ocnc3c(=O)n(C3CC3)c12 [Compound 21, 7-(3-amino-1H-pyrazolo[3,4-b]pyridine-5-yl)-5-cyclopropyl-6-methyl-oxazolo[4,5-c]quinolin-4-one] | < 1 µg/mL | < 1 µg/mL | 10 to 100 µg/mL (≈ 26.9 to 269 µM) | < 1 µg/mL | < 1 µg/mL | – | < 1 µg/mL | 1 to 10 µg/mL (≈ 2.69 to 26.9 µM) | 1 to 10 µg/mL (≈ 2.69 to 26.9 µM) | – | – | – | 10 to 100 µg/mL (≈ 26.9 to 269 µM) | < 1 µg/mL | < 1 µg/mL | < 1 µg/mL | –
C[C@H]1COc2c(-c3ccc(N)nc3)ccc3c4ocnc4c(=O)n1c23 [Compound 95, (-2S)-6-(6-aminopyridin-3-yl)-2-methyl-4,11-dioxa-1,13-diazatetracyclo[7.6.1.0^5,^16.0^10,^14]hexadeca-5(16),6,8,10(14),12-pentaen-15-one] | 1 to 10 µg/mL (≈ 2.99 to 29.9 µM) | 1 to 10 µg/mL (≈ 2.99 to 29.9 µM) | 1 to 10 µg/mL (≈ 2.99 to 29.9 µM) | 1 to 10 µg/mL (≈ 2.99 to 29.9 µM) | 1 to 10 µg/mL (≈ 2.99 to 29.9 µM) | – | 1 to 10 µg/mL (≈ 2.99 to 29.9 µM) | 10 to 100 µg/mL (≈ 29.9 to 299 µM) | < 1 µg/mL | – | – | – | > 100 µg/mL | 1 to 10 µg/mL (≈ 2.99 to 29.9 µM) | 1 to 10 µg/mL (≈ 2.99 to 29.9 µM) | 1 to 10 µg/mL (≈ 2.99 to 29.9 µM) | –
